Where two headings read alike, the source gives them in different places.
Tests used:
[1] = biological target: T1, gastrin receptor sites on the cerebral cortex membranes of mice (Mus musculus, UniProt P56481); assay: Inhibition of the binding of pentagastrin to mouse cortical membranes
T1 construct: Mouse cortical tissue; from tissue; host or cells: mouse cerebral cortex membranes
T1 sequence (P56481 1-453): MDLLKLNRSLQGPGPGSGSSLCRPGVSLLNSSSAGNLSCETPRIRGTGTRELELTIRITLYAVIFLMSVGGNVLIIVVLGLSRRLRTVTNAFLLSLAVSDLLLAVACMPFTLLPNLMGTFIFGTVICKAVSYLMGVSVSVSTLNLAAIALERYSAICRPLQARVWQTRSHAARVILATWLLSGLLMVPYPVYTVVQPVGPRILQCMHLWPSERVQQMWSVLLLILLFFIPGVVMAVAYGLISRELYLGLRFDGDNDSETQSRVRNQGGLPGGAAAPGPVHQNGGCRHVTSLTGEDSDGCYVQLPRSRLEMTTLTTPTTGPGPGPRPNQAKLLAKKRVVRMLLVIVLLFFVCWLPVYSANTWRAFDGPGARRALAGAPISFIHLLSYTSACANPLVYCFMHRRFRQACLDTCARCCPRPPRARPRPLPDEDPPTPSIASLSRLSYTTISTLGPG
Excerpt: Tests on binding to cerebral cortex membranes of mice
The capacities of some of the compounds of the invention to inhibit the binding of pentagastrin to the gastrin receptor sites on the cerebral cortex membranes of mice was to be evaluated. Pentagastrin tritiate[beta-alanyl-3-3H(N)] was used as the ligand.
Mouse cortical tissue Was homogenised cold in 20 volumes of tris buffer (pH 7.7). After washing and centrifuging, the final pellet was resuspended in 20 volumes of binding buffer containing, inter alia, TRIS, BSA and Bacitracin. 0.4 ml of the membrane thus obtained were then incubated with a radioactive tracer and the compounds under test for 40 minutes at 37° C.
After the supernatant liquid had been removed by centrifuging, the radioactivity associated with the pellet was determined with a liquid scintillator (a beta-counter). The specific binding was the difference between the binding in the absence and in the presence of 10^-5M pentagastrin.

[2] = system: gastric acid secretion induced by pentagastrin; assay: Antisecretive activity in anaesthetised rats (pentagastrin-stimulated gastric acid secretion); assay type: in vivo
Experimental: Antisecretive activity in anaesthetised rats
Antisecretive activity in rats was determined with the use of male animals each weighing about 200 g, anaesthetised with urethane. Gastric secretion was stimulated with pentagastrin. The method of K. S. Lai (Gut 5, (1964), 327-341) was used, slightly modified.
After tracheotomy, cannulae were inserted in the oesophagus and the duodenum. A tepid solution. (37° C.) of 0.25 mM NaOH was perfused and passed through the stomach by means of a peristaltic pump at a constant flow rate of 1 ml/minute. After stabilisation for 20 minutes, the stimulating agent, dissolved in a physiological solution, was perfused for 120 minutes at a dose of 30 mcg/Kg/h in a volume of 0.95 ml/hour. After perfusion for 60 minutes (the basal stimulation), the product under test was administered as an intravenous bolus (I.V.) and the perfusion of the stimulant continued for a further 60 minutes. Acid secretion was recorded continuously as a function of time.
(§1) The activity of the product was evaluated as the percentage reduction in the secreted acidity after the administration of the product compared with the base acidity measured during the first 60 minutes of collection during which only the pentagastrin was present.
Different doses of the antagonist compounds tested were administered so that an ID50, that is, the dose (in mg/Kg I.V.) capable of inhibiting the effect of pentagastrin by 50%, could be calculated.
The results thus obtained are illustrated in the following table (Table 1) in which the activities of the compounds are expressed as the ID50s under the stimulus of 30 mcg/Kg/h of pentagastrin.

[3] = system: gastric acid secretion induced by pentagastrin; assay: Antisecretive activity in conscious dogs carrying gastric fistulae; assay type: in vivo, dogs (beagles); settings: for ED50: Canis lupus familiaris, iv, read-out: ID50 (the source's name)
Experimental: Antisecretive activity in conscious dogs
Male beagles weighing about 10 Kg were used and carried gastric fistulae at the level of the greater curvature, connected near the antral region, steel cannulae 5 cm long and 2 cm wide being inserted for collecting the gastric juices externally. After a period of about one month to recover from the operation, and after suitable conditioning, the animals were treated with pentagastrin at a dose of 3 mcg/Kg/h. The Stimulant, dissolved in a physiological solution, was perfused into the femoral vein for 180 minutes at a rate of 1.9 ml/h. After perfusion for 60 minutes (the basal stimulation) the product under test, dissolved in a physiological solution (1 ml/Kg), was administered in a bolus into the contra-lateral vein and, at the same time, the perfusion of the stimulant continued for a further 120 minutes. The acid secretion was recorded continuously as a function of time.
as §1, with “present, for each of the periods 0-60 and 60-120 minutes after the product had been administered in a bolus.” for “present.”
Different doses of the compounds (C-1 and C-5) tested were administered so that an ID50, that is the dose (in mg/Kg I.V.) capable of inhibiting the effect of the pentagastrin by 50% could be calculated.
The results obtained are given in the following table (Tab. 2) in which the % variations from the base (the mean ± standard deviations calculated on the values obtained from 4 animals) are given for the various doses administered under the stimulus of 3 mcg/Kg/h of pentagastrin, as well as the activities of the compounds, calculated as their ID50s, and the correlation coefficients of the regression lines calculated on the basis of the experimental data.

[4] = system: guinea-pig gall bladder contracted with CCK-8; assay: Anticholecystokinin (anti-CCK) activity on guinea-pig gall bladders stimulated by CCK-8 in vitro; settings: CCK-8 concentration 10 ng/ml, Krebs, 32° C.
Experimental: Anticholecystokinin (anti-cc, K) activity
In order to confirm the hypothesis that the molecular conformations of the compounds of the invention are suitable to provide them with antagonistic activity towards CCK as well as towards gastrin, the anticontracturant activities of some of the compounds of the invention were tested on guinea-pig gall bladders stimulated by CCK-8 in vitro.
A longitudinal strip of guinea-pig gall bladder was placed in a bath for isolated organs in the presence of Krebs at a temperature of 32° C. and oxygenated continuously with an oxygen-CO2 mixture (95-5 V/V).
The isometric contractions were detected by means of a force transducer and recorded.
The gall bladder was contracted with the use of a concentration of 10 ng/ml of CCK-8; the antagonistic activities of the compounds towards the contracturant effect of the CCK was determined with the use of different concentrations, thus determining the IC50 values, that is, the concentration of the compound in mcg/ml which can antagonise the contracturant effect of CCK by 50%.

[5] = system: fundic and colic mucosae; settings: rats; cited from earlier work
[6] = system: fundic mucosa; assay: Fundic mucosa hyperplasia induced by pentagastrin in mice; assay type: in vivo; settings: 21 days
Excerpt: (§2) Inhibitory effect on the rate of growth of tumorous colic cells induced by pentagastrin
(§3) Gastrin has a trophic effect on the digestive epithelium.
(§4) Upon the basis of this premise, it was wished to investigate whether the gastrin-specific antagonists of the invention could antagonise the growth of experimentally-induced gastrointestinal tumours.
(§5) Male mice weighing 20-25 g were inoculated subcutaneously in the interscapular region with a suspension of 8×10^4 tumour cells of a mouse colic adenocarcinoma.
(§6) After 21 days, the animals were killed and the fundic mucosa and the tumours were removed, weighed and extracted to determine the DNA.

[7] = system: mouse colic adenocarcinoma; assay: Colic tumorous growth induced by pentagastrin in mice; assay type: in vivo; settings: 21 days
Excerpt: as §2, §3, §4, §5, §6

[8] = system: transplantable mouse colic tumour; settings: Winsell et al., Surgical Forum, 33, 384 (1982); cited from earlier work
[9] = pentagastrin alone, 250 mcg/Kg twice a day

## O=C(O)CC[C@@H](NC(=O)c1cccc(Cl)c1)C(=O)N1CCC2(CCCC2)CC1 [Compound C1]
[1]; R series vs S enantiomers (C1 vs C32)
  Activity relative to the corresponding S enantiomer (times more active): about 50 times
[1]; pentagastrin tritiate ligand, 40 minutes at 37° C., read-out: IC50, inhibition of the binding of pentagastrin
  IC50: 470 nM
[1]; vs C2
  Central activity relative to C2: only one third as active as C2 centrally
[2]; Rattus norvegicus, iv, anaesthetised male rats, pentagastrin 30 mcg/Kg/h, I.V. bolus, IN with bound, read-out: Antagonistic activity (ID50) towards gastric acid secretion induced by pentagastrin
  ED50: 20 mg/kg
[2]; anaesthetised rats, pentagastrin 30 mcg/Kg/h
  Antigastrin activity (in words): particularly favourable
[2]; rats, vs C2
  Activity on the peripheral gastrin (gastric secretion) receptor relative to compound C2 (times more active): about 1.5 times
[3]; 5 mg/Kg I.V., period 60-120 min
  Variation % (Mean ± SD) from base (0-60 min): -18.2 ± 0.3%
[3]; 5 mg/Kg I.V., period 120-180 min
  Variation % (Mean ± SD) from base (0-60 min): -22.8 ± 16.7%
[3]; 10 mg/Kg I.V., period 60-120 min
  Variation % (Mean ± SD) from base (0-60 min): -38.9 ± 7.9%
[3]; 10 mg/Kg I.V., period 120-180 min
  Variation % (Mean ± SD) from base (0-60 min): -14.3 ± 8.5%
[3]; 20 mg/Kg I.V., period 60-120 min
  Variation % (Mean ± SD) from base (0-60 min): -49.5 ± 4.2%
[3]; 20 mg/Kg I.V., period 120-180 min
  Variation % (Mean ± SD) from base (0-60 min): -26.1 ± 6.4%
[3]; 30 mg/Kg I.V., period 60-120 min
  Variation % (Mean ± SD) from base (0-60 min): -61.1 ± 12.5%
[3]; 30 mg/Kg I.V., period 120-180 min
  Variation % (Mean ± SD) from base (0-60 min): -56.7 ± 19.5%
[3]; 40 mg/Kg I.V., period 60-120 min
  Variation % (Mean ± SD) from base (0-60 min): -63.4 ± 11.5%
[3]; 40 mg/Kg I.V., period 120-180 min
  Variation % (Mean ± SD) from base (0-60 min): -43.4 ± 10.3%
[3]; 60 mg/Kg I.V., period 60-120 min
  Variation % (Mean ± SD) from base (0-60 min): -74.2 ± 5.6%
[3]; 60 mg/Kg I.V., period 120-180 min
  Variation % (Mean ± SD) from base (0-60 min): -79.9 ± 1.6%
[3]; 1 h, conscious dogs, I.V. bolus, period 60-120 min (first hour after administration)
  ED50: 19.7 mg/kg
[3]; 2 h, conscious dogs, I.V. bolus, period 120-180 min (second hour after administration)
  ED50: 31.5 mg/kg
[3]; conscious dogs, I.V. bolus, period 60-120 min (first hour after administration), 60 min
  ID50: about 20 mg/Kg
[3]; conscious dogs, first hour after bolus
  Inhibition of gastric acid secretion induced by pentagastrin in dogs (in words): potent inhibitors of gastric acid secretion induced by pentagastrin in dogs
[4]
  Anti-CCK activity IC50: 20 µg/mL

## CSCC[C@H](NC(=O)[C@H](Cc1c[nH]c2ccccc12)NC(=O)CCNC(=O)OC(C)(C)C)C(=O)N[C@@H](CC(=O)O)C(=O)N[C@@H](Cc1ccccc1)C(N)=O [Pentagastrin, pentagastrin, reference compound]
[1]
  IC50: 2.5 nM
[5]
  Trophic effect of chronic administration: causes hyperplasia of the fundic and colic mucosae
[6]; mice
  Effect on the fundic mucosa (in words): induces significant hyperplasia in the fundic mucosa
[6]; [9]
  Fundic DNA, Mean ± SD: 0.330 ± 0.05 mg
  Weight of the mucosa fundica, Mean ± SD: 32.0 ± 3.50 mg
[7]; mice
  Effect on colic tumour weight and DNA content (in words): a significant increase in the weight of the colic tumour and the DNA content
[7]; [9]
  Tumorous DNA, Mean: 3.62 ± 0.50 mg
  Weight of the colic tumor, Mean ± SD: 657.0 ± 97.7 mg

## gastrin
[8]
  Effect on growth of a transplantable mouse colic tumour: stimulates the growth of a transplantable mouse colic tumour
[5]
  Trophic effect of chronic administration: causes hyperplasia of the fundic and colic mucosae
